Key:
wild type E. coli = experiment: Growth of wild type E. coli in the presence of quinolone (OD600); assay type: cell-based
Source text: Each deletion strain was constructed by replacing the chromosomal copy of the relevant gene in a wild type E. coli strain (K-12) with a selectable antibiotic resistance gene, essentially as described, to create a precise gene deletion (Datsenko, K. A. and Wanner, B. L., “One-step inactivation of chromosomal genes in Escherichia coli K-12 using PCR products”, Proc Natl Acad Sci USA, 97, 6640-6645, […]); Baba, T., Ara, T., Okumura, Y., iki Hasegawa, M., Takai, Y., Baba, M., Oshima, T., Tomita, M., Wanner, B. and Mori, H. (2003) Systematic construction of single gene deletion mutants in Escherichia coli K-12 (in preparation) and see also the web site at ecoli.aist-nara.ac.jp/gb5/Resources/deletion/deletion.html).
For each mutant, the ratio of growth of the mutant in the presence of a sublethal concentration of quinolone to growth of the mutant in the absence of quinolone was calculated after 12 hours of growth at 37° C., based on OD600 measurements. […]

[1] = test system: recA promoter (prec::GFP) in MG1655; experiment: Cell-based recA promoter::GFP reporter assay; set-up: species or system E. coli; conditions: recA+ bacteria with reporter construct, in the presence of norfloxacin
Source text: As discussed above, the recA promoter is induced when RecA becomes activated as a result of exposure to DNA damaging agents. The present Applicants hypothesized that exposure to a quinolone may have a similar effect on the recA promoter and that this effect could be exploited to develop a cell-based assay for inhibitors of RecA. A low copy reporter plasmid was used in which the recA promoter controls transcription of the mRNA encoding green fluorescent protein (GFP). The plasmid, referred to herein as prec::GFP, has been previously described (Ronen, 2002). See also Kuang, 2004. prec::GFP contains 2821707-2821893 of the E. coli MG1655 genome (numbering based on the sequenced E. coli genome as reported in Blattner, F. R., et al., Science, 277, pp. 1453-1474, 1997) cloned upstream of a promoterless GFPmut3 gene in a low copy pSC101 origin plasmid as described (Kalir, S., et al., Science, 292, pp. 2080-2083, 2001).
The prec::GFP plasmid was introduced into MG1655 and MG1655 recA null strains and measured the fluorescence emitted by GFP in the presence or absence of quinolone as compared with background fluorescence detected from cultures of MG1655 lacking the plasmid. Briefly cells of these three strains were grown to early log phase in LB at 37° C. with shaking. […] After 60 minutes, fluorescence due to GFP expression from the reporter plasmid was measured using a spectrophotometer.

[2] = test system: SOS response (LexA auto-cleavage) in E. coli; experiment: SOS induction, LexA-controlled GFP DNA damage sensor; assay type: cell-based; conditions: 5 μg/mL Amp, 5 μg/mL Kan, 25 ng/mL Nor; 3 hours after addition
Method: FIG. 37 is a set of two graphs showing SOS induction in E. coli by bactericidal antibiotics. Activation of the SOS response was monitored using an engineered sensor construct that employs the LexA repressor for control of Green Fluorescent Protein (GFP) expression. Shown are representative GFP histogram measurements taken 3 hours after addition of a, bactericidal antibiotics (5 μg/mL Amp, 5 μg/mL Kan, 25 ng/mL Nor). b, Log change in CFU/mL of ΔrecA E. coli following exposure to 5 μg/mL Kanamycin (open diamonds), 25 ng/mL Norfloxacin (open triangles), and 5 μg/mL Ampicillin (open circles). For comparison, CFU/mL are also shown for widltype E. coli exposed to 5 μg/mL Kanamycin (diamonds), 25 ng/mL Norfloxacin (triangles), and 5 μg/mL Ampicillin (circles), as well as a lower concentration of norfloxacin in these experiments to highlight the significant increase in killing in a recA knockout.
DNA damage sensor construction. The DNA sensor construct with ampicillin resistance was described previously (D. J. Dwyer et al., “Superoxide and hydroxyl radicals contribute to gyrase inhibitor-mediated cell death in E. coli”, 2007 accepted by Mol. Syst. Biol., which is incorporated herein by reference in its entirety).
Hydroxyl radical and DNA damage sensor experiments using the flow cytometer. […]
Hydroxyl radical are extremely toxic, and will readily damage membrane lipids, proteins and DNA. […]

SMILES: CCn1cc(C(=O)O)c(=O)c2cc(F)c(N3CCNCC3)cc21 [Nor, norfloxacin]
- bacterial growth, % of wild type levels (wild type E. coli; 0.05 μg/mL Nor (sublethal concentration)): 80%
- concentration that fully inhibits growth of wild type E. coli (lethal concentration) (wild type E. coli; wild type E. coli): 0.1 µg/mL
- transcription of the recA:GFP reporter gene [1]: increased transcription of the reporter gene
- SOS activity (LexA-driven GFP expression) [2]: significant increase in SOS activity
